≈ marks a conversion by molar mass, not a printed value. Read-outs that look alike come from different tables or passages of the source.
Columns and labels:
[1] = Solubility of TH-302; format: physicochemical; settings: organic solvent or mixture
[2] = tested on: HT29 colon cancer; assay: HT-29 ectopic tumor model, TH-302 with 5FU; format: in vivo, nude mice
[3] = tested on: H460 NSCLC cells; assay: H460 ectopic xenograft, TH-302/pemetrexed dosing schedules; format: in vivo, nude mice; settings: single agent, TH-302 100 mg/kg ip Q7Dx2 or PMX 150 mg/kg ip Q7Dx2
Method: (§1) Anti-tumor activity was evaluated by tumor growth delay (TGD) and tumor growth inhibition (TGI). Body weight change, gross and microscopic assessment of tissue changes, and hematologic assays served for toxicity assessment. Testing in these models was conducted generally as follows. 1×10^6 (H460 human non-small cell lung cancer or HT1080 human fibrosarcoma cells) or 3×10^6 (PC-3 human prostate cancer cells) were implanted in the subcutaneous space of the right flank to obtain ectopic xenograft models. Randomization and dosing was initiated when tumors reached a certain size (100-150 mm^3). API grade of TH-302 was used in all experiments while docetaxel, gemcitabine, cisplatin, pemetrexed, and doxorubicin were purchased from commercial sources.
(§2) The H460 cells were prepared in 30% Matrigel and 70%. RPMI1640. Mice were anesthetized by isoflurane and were implanted subcutaneously with 1×10^6 cells (in 200 μl) at the flank position. We selected 110 mice bearing similar size tumors (˜100 mm^3) for the study. Mice bearing similar tumor size were randomly assigned into different groups. Treatment started on day 1 (7 days after tumor implantation) except as noted. TH-302 was administered intraperitoneally (IP) at 150 mg/kg, and docetaxel was administered intravenously (IV) at 10 mg/kg. Animals were observed daily and tumor measurements and body weights recorded twice weekly.
In a study conducted substantially as described above except the cells implanted were H460 NSCLC cells and 1×10^6 cells were implanted and mice were randomized into separate groups when their tumors reached ˜100 mm^3 and the chemotherapeutic employed was pemetrexed at a dose of 150 mg/kg given once a week (Q7D) for two weeks IP and the TH-302 was given at 100 mg/kg given once a week (Q7D) for two weeks IP. […]

[4] = tested on: H460 NSCLC; assay: H460 ectopic tumor model, TH-302 with carboplatin; format: in vivo, nude mice
Method: (§3) Anti-tumor activity was evaluated by tumor growth inhibition (TGI) and tumor growth delay (TGD). Body weight change, gross and microscopic assessment of tissue changes, and hematologic assays served for toxicity assessment.
(§4) Testing in these models was conducted generally as follows. 1×10^6 H460 human non-small cell lung cancer or HT1080 human fibrosarcoma cells were implanted in the subcutaneous space of the right flank to obtain ectopic xenograft models. For the orthotopic pancreatic model, red-fluorescent protein (RFP) expressing MIA PaCa2 tumors were surgically implanted on the surface of the pancreas. The prostate metastatic model was created by the intraventricular injection of 3×10^6 luciferase-expressing PC-3 cells. […] API grade of TH-302 was used in all experiments while docetaxel, gemcitabine, doxorubicin and pemetrexed were purchased from commercial sources.
Inhibition of tumor growth after administration of TH-302 and carboplatin was greater than for either drug individually in an ectopic tumor model using H460 cells.

[5] = tested on: orthotopic prostate cancer PC-3 cells; assay: Orthotopic PC-3 prostate cancer model, TH-302 with Taxol; format: in vivo, mice; settings: single agents: Taxol 12 mg/kg; TH-302 30 or 50 mg/kg
Method: TH-302 was tested as monotherapy and in combination with Taxol (paclitaxel) in animals bearing highly invasive and metastatic orthotopic prostate cancer PC-3 cells. Animals were randomized into 6 groups of 8 mice each and then treated either with vehicle; Taxol (12 mg/kg, IV, twice a week for 4 consecutive weeks); TH-302 (30 or 50 mg/kg, IP, once a day for 5 days a week for 2 consecutive weeks); or Taxol in combination with TH-302 (using the same single agent regimens).

[6] = tested on: HT1080 human fibrosarcoma cells; assay: HT1080 ectopic xenograft, TH-302/doxorubicin dosing schedules; format: in vivo, nude mice; settings: single agent, TH-302 100 mg/kg ip 1/wkx2wks or Dox 4 mg/kg iv 1/wkx2wks
Method: as §1, §2
In a study conducted substantially as described above except the cells implanted were HT1080 human fibrosarcoma cells and 1×10^6 cells were implanted and mice were randomized into separate groups when their […]

[7] = tested on: H460 NSCLC; assay: H460 ectopic lung cancer model, TH-302 with pemetrexed; format: in vivo, nude mice; settings: PMX 150 mg/kg 1/wkx2wks IP; TH-302 50 mg/kg 5/wkx2wks IP; alone or combined
Method: as §3, §4

[8] = 5-FU 50 mg/kg IV Q3Dx4, TH-302 150 mg/kg IP Q7Dx3, alone or combined
[9] = TH-302 100 mg/kg IP Q3Dx5, alone or + 5-FU 50 mg/kg IV Q3Dx4
[10] = Carboplatin 20 mg/kg IV Q7Dx2, TH-302 100 mg/kg IP Q7Dx2, alone or combined
[11] = TH-302 150 mg/kg IP Q7Dx2, alone or + Carboplatin 20 mg/kg IV Q7Dx2

Cn1c(COP(=O)(NCCBr)NCCBr)cnc1[N+](=O)[O-] [TH-302, (2-bromoethyl)({[(2-bromoethyl)amino][(2-nitro-3-methylimidazol-4-yl)methoxy]phosphoryl})amine]
solubility ([1]; ethanol, even at higher temperatures, read-out: Highest solubility of TH-302 in ethanol): ~80 mg/mL (≈ 178 mM)
solubility ([1]; ethanol/TWEEN 80 or ethanol/TWEEN 80/DMA, depending on the ratio, read-out: Solubility of TH-302): ≤ 300 mg/mL
Days to 500 mm^3 [2, 8]: 28 days
Days to 1000 mm^3 [2, 8]: 46 days
T/C [2, 8]: 48.4%
TGD500, Days (vs. vehicle) [2, 8]: 6 days
TGD1000, Days (vs. vehicle) [2, 8]: 14 days
TGI [2, 8]: 51.6%
Tn (tumor volume on Day n) [2, 8]: 565.70
Days to 500 mm^3 [2, 9]: 29 days
Days to 1000 mm^3 [2, 9]: 41 days
T/C [2, 9]: 52.0%
TGD500, Days (vs. vehicle) [2, 9]: 7 days
TGD1000, Days (vs. vehicle) [2, 9]: 9 days
TGI [2, 9]: 48.0%
Tn (tumor volume on Day n) [2, 9]: 580.55
Days to 500 mm^3 [3]: 19 days
Days to 1000 mm^3 [3]: 30 days
T/C [3]: 49.7%
TGD500, Days (vs. vehicle) [3]: 7 days
TGD1000, Days (vs. vehicle) [3]: 9 days
TGI [3]: 50.3%
Tn (tumor volume on Day n) [3]: 598.34
Days to 500 mm^3 [4, 10]: 13.5 days
T/C [4, 10]: 56.1%
TGD500, Days (vs. vehicle) [4, 10]: 4 days
TGI [4, 10]: 43.9%
Tn (tumor volume on Day n) [4, 10]: 706.0
Days to 500 mm^3 [4, 11]: 14.5 days
T/C [4, 11]: 50.3%
TGD500, Days (vs. vehicle) [4, 11]: 5 days
TGI [4, 11]: 49.7%
Tn (tumor volume on Day n) [4, 11]: 641.6
Primary tumor growth during the treatment period [5]: significantly inhibited primary tumor growth
Days to 500 mm^3 [6]: 22 days
T/C [6]: 25.3%
TGD500, Days (vs. vehicle) [6]: 10 days
TGI [6]: 74.7%
Tn (tumor volume on Day n) [6]: 334.66
Days to 500 mm^3 [7]: 26 days
Days to 1000 mm^3 [7]: 34 days
T/C [7]: 38.4%
TGD500, Days (vs. vehicle) [7]: 12 days
TGD1000, Days (vs. vehicle) [7]: 10 days
TGI [7]: 61.6%
Tn (tumor volume on Day n) [7]: 507.13

From US8946275B2, “Treatment of cancer using hypoxia activated prodrugs” (Threshold Pharmaceuticals, Inc., priority 2008, dated 2015)
